# Columns and labels:
# wild type E. Coli = details: previous data; cited from earlier work
# S. typhimurium TA100 = test: Dose range finding colony forming assay, strain TA100 with metabolic activation; format: cell-based; details: positive control, 2 μg/plate
# Procedure: (§1) A series of dose range finding assays were performed with five bacterial strains, S. typhimurium TA97a, TA98, TA100, TA1535, and E. coli WP2 uvrA pKM101, with and without metabolic activation at three plates per dose. The following doses, along with positive and negative controls, were tested: 5000, 2500, 1250, 500, 250, 125, 50, 20, 10, 5, 2, 1, and 0.2 μg/plate. The plates were evaluated for toxicity (a decrease in plate counts with increasing dose and/or a visible thinning of the background lawn) and for precipitation of the test article. Metabolic activation was included in some samples by adding phenobarbital/benzoflavone-induced rat liver S9 fractions with cofactors (S9 mix). Prior to use, freshly thawed aliquots of rat liver S9 were mixed with a sterile cofactor mix. The S9 mix contains a 10% liver S9 concentration and was refrigerated or stored on ice until used. When testing with metabolic activation, the S9 mix was used in the assay tube in place of phosphate buffer.
# (§2) Dosing formulations were prepared to deliver all doses in a constant volume of 0.1 mL. The highest dose was prepared from test article weighed to the nearest 0.1 mg and the remaining formulations were prepared as serial dilutions from the high dose stock formulation. Using a permanent marking pen or computer printed labels, assay plates were labeled with the project and study numbers and the date. Assay plates and tubes were labeled with a unique identifier, which was used to match the assay tubes with the properly identified minimal glucose agar plate.
# (§3) The pre-incubation method was used to perform the assay. The assay mix consisted of 0.1 mL of the test article formulation or control article, 0.5 mL S9 mix or phosphate buffer, and 0.1 mL of bacterial culture. Assay tubes were incubated at 37±1° C. with gentle agitation for 20±1 minutes, then 2.0-2.5 mL top agar was added to the assay mix and the top agar/assay mix poured onto appropriately labeled minimal glucose agar plates. Once the top agar hardened, the plates were inverted and incubated at 37±1° C. for 48±2 hours. Plates were counted with the Sorcerer (v. 2.2)/Ames Study Manager (v. 1.2.4) system from Perceptive Instruments (Suffolk, UK). With this system, plate counts are automatically transferred from the plate imager (Sorcerer) to a Study Manager spreadsheet, and the data are stored in a secure manner on an Oracle database. Some plates were hand counted, e.g., if sample precipitate interferes with automatic counting or toxicity results in the formation of microcolonies, in which case, counts for these plates were entered into the spreadsheet manually. Plates were scored also with the extent of colonization by a post fix code.
# [1] = system: NEB 5 α competent E. coli; test: Bacterial colony forming assay (Examples 6-9); format: cell-based; details: alcohol gel
# Procedure: NEB 5 α competent E. coli were retrieved from frozen cultures and grown overnight in a bacterial incubator at 37° C. Proliferating cultures of bacteria were used in a colony forming assay by adding 25 μL of bacteria from the overnight culture to 10 mL of fresh Lysogeny Broth (LB; Bertani, G. (2004). “Lysogeny at mid-twentieth century: P1, P2, and other experimental systems”. Journal of Bacteriology. 186 (3): 595-600. PMC 321500. PMID 14729683. doi:10.1128/JR.186.3.595-600.2004). 1 mL of this diluted bacteria was added to various dilutions of formulations of substituted tolan compounds as described in Table C, below and in charts of the corresponding Figures.
# One mL of each formulation was mixed with 1 mL of diluted bacteria in LB and put onto agar plates. Alcohol gels were allowed to dry and incubated overnight for 16-18 hrs. Control plates consisted of 2 mL alcohol gel plus 1 mL diluted bacteria, resulting in a colony count of less than 10 colonies, a 1 mL alcohol gel plus 1 mL diluted bacteria, resulting in a partial lawn of bacteria (colonies were too close to count appropriately), 1 mL diluted bacteria alone, resulting in a full lawn of bacteria (no distinguishable colonies), and an appropriate dilution of PEG-400 and HPβCD into 1 mL of alcohol gel plus 1 mL diluted bacteria, resulting in a lawn of bacteria. Plate area was then selected and the Image J colony counter was used to obtain colony counts (Size (pixels squared) 5-1000 and circularity 0.5-1).
# S. typhimurium TA97a = test: Dose range finding colony forming assay, strain TA97a with metabolic activation; format: cell-based; details: positive control, 2.5 μg/plate
# Procedure: as §1, §2, §3
# S. typhimurium TA98 = test: Dose range finding colony forming assay, strain TA98 with metabolic activation; format: cell-based; details: positive control, 2 μg/plate
# Procedure: as §1, §2, §3
# S. typhimurium TA1535 = test: Dose range finding colony forming assay, strain TA1535 without metabolic activation; format: cell-based; details: positive control, 1 μg/plate
# Procedure: as §1, §2, §3
# [2] = system: Methicillin Resistant Staphylococcus aureus (MRSA, USA 400); test: Colony forming assay, 24 h plate assay, MRSA USA 400; format: cell-based; details: Tobramycin 600 μg/mL, compared to the vehicle control, FIG. 9
# Procedure: Proliferating cultures of Methicillin Resistant Staphylococcus aureus (MRSA, USA 400) were used in a colony forming assay. Frozen stock cultures of MRSA USA 400 were thawed and grown overnight in tryptic soy broth (TSB) with shaking at 37° C. The overnight culture (0.5-1.0 mL) was added to 100 mL TSB and grown at 37° C. with shaking and monitored for an optical density of 0.55-0.60 in order to obtain a final inoculum suspension of approximately 10^8 CFU/mL.
# BM3103 was suspended into a 70% v/v alcohol gel formulation to acquire the desired % w/v tested within the example. Each concentration was vortexed thoroughly until dissolved. Initial tested concentrations of BM3103 were 1, 0.5, and 0.1% w/v. These concentrations and the alcohol gel vehicle were mixed with equal parts of the 10^8 CFU/mL inoculum to obtain a final concentration of 0.5, 0.25, and 0.05% (22 mM, 11 mM, and 2 mM) BM3103. Tobramycin (600 μg/mL) served as the positive control. Vehicle and BM3103 formulations contained matching final concentration of 35% v/v alcohol.
# BM3103 was dissolved into Transcutol (diethylene glycol monoethyl ether) at 2.5% w/v and vortexed until dissolved. This concentration was then serial diluted to achieve the remaining concentrations tested. Before plating, 100 μL of the final inoculum (10^8 CFU/mL) was mixed with 20 μL TSB broth and 80 μL of BM3103 doses or vehicle. Tobramycin, 600 μg/mL, served as the positive control. The final plating concentrations for BM3103 were 1, 0.5, 0.25, and 0.1% w/v (44 mM, 22 mM, 11 mM, 4 mM) BM3103. Vehicle and BM3103 formulations contained matching final concentration of 40% v/v Transcutol.
# The above listed formulations combined with the MRSA inoculum were plated onto TSB agar plates. The plates were grown at 37° C. for 24 h, imaged, and the bacteria colonies were counted. The experiment was done in triplicate at each concentration level described above. Colony counts for each treatment were tabulated and the Log of the colony forming units/mL (Log CFU/mL) were determined. The mean and the standard error of the mean were calculated for each treatment.
# [3] = system: Methicillin Resistant Staphylococcus aureus (MRSA USA 300); test: Colony forming assay, spread plate, MRSA USA 300; format: cell-based; details: Tobramycin 600 μg/mL; compared to the untreated control; 24 h; FIGS. 6A-6B
# Procedure: A fresh culture of pathogenic isolate was used in these examples. The bacterial strains used were Methicillin Resistant Staphylococcus aureus (MRSA USA 300), Pseudomonas aeruginosa ATCC 27312, and Candida albicans ATCC 64550.
# FIG. 5 illustrates the spread plate method used in these examples. In sum, agar plates were made, bacteria were diluted to 10^6 or 10^8 CFU/mL, bacteria and drug were mixed together and then plated. Glass spreading beads were used because they give a better bacterial spread. Plates were incubated for 24 hrs then the colonies that formed were counted.
# Proliferating cultures of Methicillin Resistant Staphylococcus aureus (MRSA, USA 300) were used in a colony forming assay. Freeze-dried bacteria culture of MRSA was recovered by swabbing a 3-cm diameter growth area and resuspending it to obtain a final inoculum suspension of approximately 10^8 CFU/mL. The concentration was confirmed using historical optical density measurements. The total compound BM3103 was suspended in a 70% v/v alcohol gel formulation (Formulation A) before the introduction of bacteria, with the vehicle consisting of solely the 70% v/v alcohol gel. MRSA at 10^8 CFU/mL was challenged with equal parts of a high, medium, and low dose of BM3103, vehicle formulation, positive control (Tobramycin, 600 μg/mL), or untreated control (phosphate buffered saline). The inoculum was plated on Tryptic Soy Broth plates at 37° C. for 24 h. Plates were photographed and counted. The treatment for each experiment was done in triplicate, and the experiment was repeated three times, for a total of 9 plates per group.
# Colony counts for each treatment were tabulated and the Log of the colony forming units/mL (Log CFU/mL) was determined. The mean and standard deviation of the Log CFU/mL were calculated for each treatment. A one-way analysis of variance was performed at a 95% confidence interval.
smiles,measurement,setting,value
"Oc1ccc(C#Cc2cc(O)cc(O)c2)cc1 [3,5,4′-trihydroxytolan]",Effectiveness against wild type E. Coli,wild type E. Coli,ineffective
"c1ccc2c(c1)cc1ccc3cccc4ccc2c1c34 [BAP_Moltox, Benzo(a) pyrene_Moltox, reference compound]",Colony forming units/plate,S. typhimurium TA100,806.0 colony forming units/plate
"Oc1ccc(C#Cc2ccc(C(F)(F)F)cc2)cc1 [BM3213, 4-hydroxy-4′-(trifluoro)methyltolan]",Inhibition of E. coli growth,"[1]; 2.23 mM, FIG. 3",very inhibitory to E. coli
same,Inhibition of E. coli growth,"[1]; concentrations 10 fold diluted from 2.23 mM, FIG. 3",less so
"COc1ccc(C#Cc2ccc(OC)c(OC)c2)cc1 [BM3303, 3,4,4′-trimethoxytolan]",Inhibition of E. coli growth,"[1]; 1.11 mM, FIG. 4",an inhibitor to E. coli
same,Dose dependence of inhibition of E. coli,[1]; FIG. 4,dose dependent inhibitory effects
same,Inhibition of E. coli growth,"[1]; concentrations 10-fold diluted from 1.11 mM, FIG. 4",less so
"Nc1ccc2cc3ccccc3cc2c1 [Compound 2A, 2-Aminoanthracene, reference compound]",Colony forming units/plate,S. typhimurium TA97a,3241.3 colony forming units/plate
same,Colony forming units/plate,S. typhimurium TA98,2315.0 colony forming units/plate
"[N-]=[N+]=[N-] [NaN3, Sodium Azide, reference compound]",Colony forming units/plate,S. typhimurium TA1535,714.7 colony forming units/plate
"NC[C@H]1O[C@H](O[C@H]2[C@H](O)[C@@H](O[C@H]3O[C@H](CO)[C@@H](O)[C@H](N)[C@H]3O)[C@H](N)C[C@@H]2N)[C@H](N)C[C@@H]1O [Tobramycin, reference compound]",Reduction of MRSA USA 400 counts,[2],4 fold
same,Reduction of MRSA USA 300 counts,[3],6 fold

# Source: patent US12678412B2, “Substituted tolans for the modulation of microbial colonization” (BioMendics, LLC, priority 2017, dated 2026)
